Experimental data from publication PMC10384874, “The Expression of Antibacterial Peptide Turgencin A in Pichia pastoris and an Analysis of Its Antibacterial Activity” (Molecules, 2023).
No end group written: not given here.

Key:
[1] = test system: S. aureus ATCC25923; assay: Minimum inhibitory concentration (MIC) determination; type: cell-based, Staphylococcus aureus; conditions: S. aureus (ATCC 25923); 96-well plate, LB, fermentation supernatant diluted to 1-6 μg·mL^−1; lowest peptide concentration with no bacterial growth; n = 3
Description: (§1) A single colony of the tested bacteria was picked to LB liquid medium and incubated at 37 °C until the OD600 reached about 1. This test bacteria solution was diluted 1000 times. The fermentation supernatant was serially diluted in a 96-well plate using replacement buffer to 1, 2, 3, 4, 5, and 6 μg·mL^−1 concentrations. Then, 20 μL of the diluted peptide and 100 μL of the test bacterium were added to each well. The negative control and positive control were […], respectively. The MIC value was defined as the lowest peptide concentration associated with no bacterial growth. In this study, the MIC values of Turgencin A were determined against S. aureus ATCC25923, Salmonella spp. ATCC10467, E. coli ATCC10305, E. Coli O157 ATCC35150, L. monocytogenes ATCC21633, and B. subtilis ATCC6633.

[2] = test system: B. subtilis ATCC6633; assay: as above; type: cell-based, Bacillus subtilis; conditions: B. subtilis (ATCC 6633); 96-well plate, LB, fermentation supernatant diluted to 1-6 μg·mL^−1; lowest peptide concentration with no bacterial growth; n = 3
Description: as §1

[3] = test system: L. monocytogenes ATCC21633; assay: as above; type: cell-based, Listeria monocytogenes; conditions: L. monocytogenes (ATCC 21633); 96-well plate, LB, fermentation supernatant diluted to 1-6 μg·mL^−1; lowest peptide concentration with no bacterial growth; n = 3
Description: as §1

[4] = test system: Salmonella spp. ATCC10467; assay: as above; type: cell-based; conditions: Salmonella spp. (ATCC 10467); 96-well plate, LB, fermentation supernatant diluted to 1-6 μg·mL^−1; lowest peptide concentration with no bacterial growth; n = 3
Description: as §1

[5] = test system: E. coli O157 ATCC35150; assay: as above; type: cell-based, Escherichia coli O157; conditions: E. coli O157 (ATCC 35150); 96-well plate, LB, fermentation supernatant diluted to 1-6 μg·mL^−1; lowest peptide concentration with no bacterial growth; n = 3
Description: as §1

[6] = test system: E. coli ATCC10305; assay: as above; type: cell-based, Escherichia coli; conditions: E. coli (ATCC 10305); 96-well plate, LB, fermentation supernatant diluted to 1-6 μg·mL^−1; lowest peptide concentration with no bacterial growth; n = 3
Description: as §1

[7] = test system: S. aureus ATCC25923; assay: Agar well diffusion assay; type: cell-based, Staphylococcus aureus; conditions: 9 μg·mL^−1 rTurgencin A fermentation supernatant, 50 μL per well, against 50 μg·mL^−1 gentamicin
Description: (§2) The test bacterial strain was seeded into an LB liquid medium and cultured at 37 °C until the OD600 value reached 1. In total, 50 μL of bacteria was mixed with the 15 mL molten LB medium (1% peptone, 1% NaCl, and 0.5% yeast extract) at 25 °C and allowed to solidify. Holes were punched with sterile gun heads. Subsequently, 50 μL of the fermentation supernatant was added to the holes. Gentamicin (Gen) at 50 µg·mL^−1 was used as the positive control. The antibacterial peptide SC3, which was not active in the laboratory, was used as the negative control.

[8] = test system: L. monocytogenes ATCC21633; assay: Agar well diffusion assay; type: cell-based, Listeria monocytogenes; conditions: 9 μg·mL^−1 rTurgencin A fermentation supernatant, 50 μL per well, against 50 μg·mL^−1 gentamicin
Description: as §2

[9] = test system: Gram-positive and Gram-negative bacteria; assay: Agar well diffusion assay, inhibition profiling of six strains; type: cell-based; conditions: fermentation supernatant, 9 μg·mL^−1 rTurgencin A; B. subtilis, S. aureus, L. monocytogenes, Salmonella spp., E. coli O157, E. coli
Description: as §2

[10] = test system: S. aureus ATCC25923; assay: pH stability, read out by agar well diffusion assay; type: physicochemical, Staphylococcus aureus; conditions: 13.7 μg·mL^−1; 100 mM buffers pH 2, 4, 6, 8, 10; 37 °C, 4 h; inhibition circle against S. aureus ATCC25923 after 12 h; n = 3
Description: as §2
(§3) The rTurgencin A freeze-dried fermentation supernatant was dissolved in different buffers. The contents were all 200 mg·mL^−1. Therefore, the concentrations of rTurgencin A in this experiment were all 13.7 μg·mL^−1.
The rTurgencin A freeze-dried fermentation supernatant was dissolved in a glycine solution at a pH of 2, a sodium acetate solution at a pH of 4, a Tris-HCl solution at a pH of 6, a Tris-HCl solution at a pH of 8, and a glycine solution at a pH of 10. The final concentrations of the buffer solution were all 100 mM. Then, the samples were treated at 37 °C for 4 h and subjected to the agar well diffusion assay. Twelve hours later, the inhibition circle was observed. The negative control was a buffer solution of different pHs.

[11] = test system: S. aureus ATCC25923; assay: Temperature stability, read out by agar well diffusion assay; type: physicochemical, Staphylococcus aureus; conditions: 13.7 μg·mL^−1 in 50 mM pH 7.4 Tris-HCl, inhibition circle against S. aureus ATCC25923 after 12 h, n = 3
Description: as §2, §3
The rTurgencin A freeze-dried fermentation supernatant was dissolved in a 50 mM pH 7.4 Tris-HCl solution and then treated at 4 °C, 25 °C, 37 °C, 65 °C, and 90 °C for 1 h. The samples were subjected to an agar well diffusion assay. Twelve hours later, the inhibition circle was observed. The negative control was a 50 mM pH 7.4 Tris-HCl solution after treatment for 1 h at the same temperature.

[12] = test system: S. aureus ATCC25923; assay: Protease stability, read out by agar well diffusion assay; type: in vitro ADME, Staphylococcus aureus; conditions: 2 h, 13.7 μg·mL^−1, inhibition circle against S. aureus ATCC25923, n = 3
Description: as §2, §3
The rTurgencin A freeze-dried fermentation supernatant was dissolved in buffers of a glycine solution at a pH of 2, a PBS solution at a pH of 6, a Tris-HCl solution at a pH of 7, and a Tris-HCl solution at a pH of 8. The final concentrations of the buffer solution were all 100 mM. Pepsin was added to the solution at a pH of 2, papain at a pH of 6, proteinase K at a pH of 7, and trypsin at a pH of 8. The protease concentrations were all 1 mg·mL^−1. The mixtures of 0.24 U of different protease solutions and rTurgencin A were reacted at 37 °C for 2 h. The samples were then subjected to an agar well diffusion assay. Twelve hours later, the inhibition circle was observed. The negative control was different protease solutions.

[13] = test system: S. aureus ATCC25923; assay: Stability in salt solutions, read out by agar well diffusion assay; type: physicochemical, Staphylococcus aureus; conditions: 5 mM MgCl2, 50 mM MgCl2, 50 mM KCl and 150 mM KCl; 13.7 μg·mL^−1; inhibition circle against S. aureus ATCC25923; n = 3
Description: as §2, §3
The rTurgencin A freeze-dried fermentation supernatant was dissolved in 5 mM MgCl2, 50 mM MgCl2, 50 mM KCl, and 150 mM KCl, respectively. Then, the samples were subjected to an agar well diffusion assay. Twelve hours later, the inhibition circle was observed. The negative control was the different salt solutions.

[14] = test system: S. aureus ATCC25923; assay: Total nucleotide leakage; type: cell-based, Staphylococcus aureus; conditions: positive control 0.1% Triton X-100, 4 h
Description: The total nucleotide leakage associated with the peptide activity was analyzed according to the protocol described by Shwaiki et al.. We detected the total nucleotide leakage of the effect of Turgencin A on the cell membrane of S. aureus ATCC25923. The OD of each concentration was measured at 260 nm after four hours of contact reaction. The positive and negative controls were 0.1% Triton X-100 and water, respectively.

[15] = test system: total food spoilage bacteria in pork; assay: Pork preservation experiment, total number of bacteria; conditions: pork treated with rTurgencin A at 10 μg·mL^−1, stored at 4 °C; days 0, 1, 3, 5; control group increasing
Description: The fermentation supernatant was passed through a 0.22 μm membrane filter and transferred to a beaker. Fresh pork hind leg meat was cut into 5 g pieces and placed in the above solution, soaked for 1 min in each direction, shaken so that the surface of the meat was fully exposed to the solution, removed, placed on cling film to drain, left for 5 min at room temperature, turned over, and left for another 5 min to remove excess water so that the meat neither dripped nor was too dry. […] The colony count is expressed by colony-forming units (CFU), and a common logarithm determines the total number of colonies. SC3 served as the negative control.

[16] = Pork preservation experiment, flesh color; conditions: pork treated with rTurgencin A at 10 μg·mL^−1, stored at 4 °C; days 0, 2, 4, 6; control deteriorated on day 4
Description: The fermentation supernatant was passed through a 0.22 μm membrane filter and transferred to a beaker. Fresh pork hind leg meat was cut into 5 g pieces and placed in the above solution, soaked for 1 min in each direction, shaken so that the surface of the meat was fully exposed to the solution, removed, placed on cling film to drain, left for 5 min at room temperature, turned over, and left for another 5 min to remove excess water so that the meat neither dripped nor was too dry. The meat was then wrapped in plastic and stored in a refrigerator at 4 °C for seven days. During this period, the pork samples were tested for colony counts every 48 h, according to the method of GB 4789-2022 [42]. The colony count is expressed by colony-forming units (CFU), and a common logarithm determines the total number of colonies. SC3 served as the negative control.

[17] = Antibacterial activity of the nickel column purified product; type: cell-based; conditions: nickel column purified product after dialysis of the replacement solution
Description: For the affinity purification with a nickel column, the Ni NTA Beads 6FF filler (Smart-Lifesciences, Changzhou, China) was added to the column, and the filler was rinsed twice with distilled water to remove ethanol, followed by two rinses with binding buffer (50 mM Tris-HCl pH = 7.9, 500 mM NaCl, and 10 mM Imidazole). The fermentation supernatant was treated with a 0.45 μm membrane filter, added to the nickel column, and combined with filler for 1 h in a low-speed shaker at 4 °C. The flow solution was collected and rinsed with binding buffer (50 mM Tris-HCl pH = 7.9, 500 mM NaCl, and 10 mM Imidazole) three times to wash off unbound proteins. Elution buffer (50 mM Tris-HCl pH = 7.9, 500 mM NaCl, and 1 M imidazole) was added and the eluent of the target protein was collected. Finally, the eluent was dialyzed in 0.01 M PBS for 12 h at a low temperature.

“GPKTKAACKMACKLATCGKKPGGWKCKLCELGCDAV (disulfide (positions not given here)) [rTurgencin A, His-tagged recombinant Turgencin A expressed in Pichia pastoris; tested as yeast fermentation supernatant, concentration by ELISA]” gave an MIC [1] of 3 µg/mL, an MIC [2] of 2 µg/mL and an MIC [3] of 3 µg/mL. It also gave an MIC [4] of 4 µg/mL, an MIC [5] of 5 µg/mL and an MIC [6] of 5 µg/mL. The “inhibition circle diameter compared with gentamicin” value [7] was “more significant than 50 μg·mL^−1 gentamicin”, the “inhibition circle diameter compared with gentamicin” value [8] was “more significant than 50 μg·mL^−1 gentamicin” and the “antibacterial activity (inhibition profiling)” value [9] was “provided antibacterial activity against Gram-positive and Gram-negative bacteria”. The “reduction in inhibitory action at low pHs” value [10] was 40%, the “stability at neutral and high pH levels” value [10] was “good stability” and the “stability at low and room temperatures” value ([11]; 4 °C, 25 °C and 37 °C for 1 h) was “good stability”. The “diameter of the inhibition circle as % of the maximum inhibition circle diameter” value ([11]; 90 °C for 1 h) was 55%, the stability in papain ([12]; papain 1 mg·mL^−1 (0.24 U), 100 mM PBS pH 6, 37 °C) was “good stability” and the “antibacterial activity remaining in the presence of pepsin” value ([12]; pepsin 1 mg·mL^−1 (0.24 U), 100 mM glycine pH 2, 37 °C) was 70%. For the same sequence, the stability in k-protease ([12]; proteinase K 1 mg·mL^−1 (0.24 U), 100 mM Tris-HCl pH 7, 37 °C) was “good stability”, the stability in trypsin ([12]; trypsin 1 mg·mL^−1 (0.24 U), 100 mM Tris-HCl pH 8, 37 °C) was “good stability” and the “antibacterial activity in salt solutions” value [13] was “not affected”. For the same sequence, the “total nucleotide leakage relative to the positive control” value ([14]; 1 × MIC) was 34.3%, the “total nucleotide leakage relative to the positive control” value ([14]; 2 × MIC) was 77.3% and the “total nucleotide leakage relative to the positive control” value ([14]; 3 × MIC) was 131.5%. The “bacterial colonies in pork over storage days” value [15] was “showed a decreasing trend with an increase in days”, the “color of the pork flesh” value [16] was “still bright on the fourth day” and the “antibacterial activity of the purified product” value [17] was “deficient antibacterial activity”.
